Assay results from patent US20240391892A1, “A SMALL MOLECULE COMPOUND AND ITS USE AND PREPARATION METHOD” (SHANGHAI COACHCHEM TECHNOLOGY CO., LTD, priority 2022, published 2024).
Where “and” joins values, the source holds several entries; their conditions need not be identical. Equal values may be shown once.

Columns and labels:
[1] = In vitro DPPH free radical scavenging test; assay type: biochemical; design: DPPH Free Radical Scavenging Rate (%v/v): unit not given here; settings: for DPPH Free Radical Scavenging Rate (%): replicate wells; for DPPH Free Radical Scavenging Rate (%v/v): mean ± SD
Text: The DPPH radical scavenging assay is an in vitro method used to evaluate antioxidant activity. DPPH is a stable free radical in organic solvents and appears purple in methanol or ethanol, with maximum absorption at a wavelength of 517 nm. The DPPH assay is based on the ability of an antioxidant to donate an electron to the DPPH radical, converting its purple color to yellow. The degree of absorbance change at 517 nm corresponds to the extent of the free radical scavenging activity, meaning the stronger the scavenging ability of the antioxidant, the lower the absorbance.
Using ascorbic acid (VC) as a system reference, dilute it with PBS to obtain five concentrations: 12.5, 25, 50, 100, and 200 μg/mL. Perform the test and calculations according to the procedure outlined in 3.3.2. Plot the reference curve with the concentration of the reference substance on the x-axis and the DPPH free radical scavenging rate on the y-axis.
Prepare the samples into the respective concentrations of test solutions. Prepare the reaction system by adding the specified amount of each reagent mentioned in Table 1, mix thoroughly. For each concentration, set up three replicate wells and one blank control well.
The reaction system is placed at room temperature and allowed to react in the dark for 30 minutes. After the reaction is complete, the absorbance (OD value) is measured at 515 nm. The formula to calculate the scavenging rate of the sample against DPPH free radicals is as follows:
[formula] [formula] • Where: • C1=Absorbance value of the blank with DPPH • C2=Absorbance value of the blank without DPPH • T1=Absorbance value of the sample with DPPH • T2=Absorbance value of the sample without DPPH

[2] = Stability test under light and temperature, content by HPLC-DAD; assay type: physicochemical
Procedure: To compare the stability of Retinyl-trans-4-tert-Butylcyclohexanol and retinol […] under different conditions.
A certain amount of retinol and Retinyl-trans-4-tert-Butylcyclohexanol is taken and placed under conditions of light exposure, 4° C., 25° C., 45° C., and 50° C. for 28 days. Samples are periodically collected to determine their content and examine the influence of light and temperature on their stability.
High-Performance Liquid Chromatography with Diode Array Detection (HPLC-DAD), Electronic Balance (precision of 0.01 mg), Chromatographic Column (Welch Ultimate series XB-C18 column, 250 mm*4.6 mm, 5 μm), Several volumetric flasks.
(§1) Accurately weigh approximately 0.1g of Retinyl-trans-4-tert-Butylcyclohexanol samples obtained under conditions of light exposure, 4° C., 25° C., 45° C., and 50° C. into a 100 mL brown volumetric flask. Add an appropriate amount of acetonitrile while avoiding light, ultrasonicate, dilute to the mark, shake well, and prepare two parallel samples for each condition.
as §1, with “0.1 g” for “0.1g”, “retinol” for “Retinyl-trans-4-tert-Butylcyclohexanol”
Operate according to the procedures for high-performance liquid chromatography (HPLC) usage and maintenance: • I) Run the blank solvent, inject 2 times, record the chromatogram for up to 30 minutes; • II) Run at least 3 injections of the control solution 1, record the chromatogram for up to 30 minutes; • III) Run the control solution 2, inject 2 times, record the chromatogram for up to 30 minutes; • IV) Inject 2 samples of the test solution, record the chromatogram for up to 30 minutes; • V) Adjust the chromatogram scale, integrate, and print. […]

HaCat cells = assay: Intracellular ROS scavenging test in UVB-irradiated HaCat cells; assay type: cell-based, human; settings: UVB 20 mJ/cm2, 24 hours incubation, vs UVB control, p<0.001
Procedure: Among these factors, UV radiation stands as the most significant contributor. Skin exposed to UV radiation generates an excess of reactive oxygen species (ROS) within cells, triggering the expression of genes related to aging, instigating an inflammatory cascade, and reducing the expression of elastin and collagen proteins, leading to manifestations of photoaging like skin laxity and wrinkles. Photoaging predominantly occurs in the dermis.
UVB irradiation is administered to immortalized human keratinocytes (HaCat cells) to induce intracellular reactive oxygen species (ROS) generation. The UVB dose applied to HaCat cells is 20 mJ/cm2. Following the UVB treatment, varying concentrations of Retinyl 4-t-Butylcyclohexanol test samples are added to the cells and incubated for 24 hours. ROS levels within the cells are assessed using a ROS detection kit.
Graph Pad Prism was used for statistical plotting, and the results were presented as Mean±SD. Statistical analysis was conducted using the t-test. A significance level of p<0.05 was considered statistically significant, where *p<0.05, ** p<0.0 1 (0.005<** p<0.01), and *** p<0.001, indicating increased significance as the p-value decreases. When employing the t-test for statistical analysis, the comparison between the UVB control group and the Control group was represented as # (p<0.001 indicated as ###). […]

O=C1O[C@H]([C@@H](O)CO)C(O)=C1O [ascorbic acid]
DPPH Free Radical Scavenging Rate (%) ([1]; concentration 12.5 μg/mL): 20.55% and 18.55% and 20.32%
DPPH Free Radical Scavenging Rate (%) ([1]; concentration 25 μg/mL): 30.26% and 31.17% and 32.98%
DPPH Free Radical Scavenging Rate (%) ([1]; concentration 50 μg/mL): 64.58% and 65.09% and 62.73%
DPPH Free Radical Scavenging Rate (%) ([1]; concentration 100 μg/mL): 101.32% and 95.11% and 97.07%
DPPH Free Radical Scavenging Rate (%) ([1]; concentration 200 μg/mL): 101.28% and 92.01% and 108.75%

CC1=C(/C=C/C(C)=C/C=C/C(C)=C/C(=O)O[C@H]2CC[C@H](C(C)(C)C)CC2)C(C)(C)CCC1 [Retinyl 4-trans-t-Butylcyclohexanol, retinoic acid trans-4-tert-butylcyclohexyl ester]
Content after storage ([2]; 28 days at 4° C.): above 98%
Content after storage ([2]; 28 days at room temperature): above 98%
Stability compared with retinol ([2]; light exposure, room temperature, 45° C. and 50° C., 28 days, not at 4° C.): significantly higher
DPPH free radical scavenging compared to the control group ([1]; concentrations 0.02% to 4%, p<0.001): statistically significant increase
DPPH Free Radical Scavenging Rate (%v/v) ([1]; sample concentration 0.02 %v/v): 9.87 ± 3.44
DPPH Free Radical Scavenging Rate (%v/v) ([1]; sample concentration 0.1 %v/v): 15.91 ± 1.25
DPPH Free Radical Scavenging Rate (%v/v) ([1]; sample concentration 0.5 %v/v): 36.72 ± 1.98
DPPH Free Radical Scavenging Rate (%v/v) ([1]; sample concentration 2 %v/v): 48.12 ± 1.07
DPPH Free Radical Scavenging Rate (%v/v) ([1]; sample concentration 4 %v/v): 83.96 ± 1.22
UVB-induced intracellular ROS levels (HaCat cells): effectively reduced
